Legend:
IL-1β release = assay: IL-1β Release Assay; assay type: cell-based; details: Homo sapiens; PMA-treated THP-1 cells, 250 ng/mL LPS then 20 μM nigericin; cleaved IL-1β in media
Method: Approximately 1.5 million THP-1 cells were plated in each well of a 6-well TC plate and incubated with 40 nM PMA in RPMI (10% FBS, 1% Penstrep) for 24 hours. The media was then removed, and cells were rested in RPMI (10% FBS, 1% Penstrep) for 24 hours after which time the media was removed and cells were pre-treated for 2 hours with various concentrations of compounds of interest (typically serial 3-fold dilution in RPMI+5% FBS, concentrations ranging from 1 μM to 0.5 nM) in RPMI (5% FBS). The media was again removed, and cells were incubated with 250 ng/mL LPS and compounds of interest (concentrations as above) in RMPI (5% FBS) for 2 hours. The media was removed for a last time and cells were incubated with 20 μM nigericin and compounds of interest (concentrations as above) in Opti-MEM for 30 minutes. Cell media was then collected and the amount of cleaved IL-1β was determined using a JESS instrument (Protein Simple) and standard protocols. Cleaved Il-1β antibody was obtained from Cell Signaling (catalogue #83186S) and was used at 1:20 dilution in antibody diluent 2. Protein Simple 1× anti-Rabbit HRP secondary antibody was used along with Protein Simple luminol and peroxide for chemiluminescent detection. Primary antibody incubation time was increased from 30 minutes to 60 minutes.

[1] = biological target: full-length recombinant human NEK7 (Homo sapiens (Human), UniProt Q8TDX7); assay: NEK7 Enzymatic Assay; assay type: biochemical; details: casein substrate, [33P]-ATP, 2 hours at room temperature
full-length recombinant human NEK7, sequence (Q8TDX7 whole entry): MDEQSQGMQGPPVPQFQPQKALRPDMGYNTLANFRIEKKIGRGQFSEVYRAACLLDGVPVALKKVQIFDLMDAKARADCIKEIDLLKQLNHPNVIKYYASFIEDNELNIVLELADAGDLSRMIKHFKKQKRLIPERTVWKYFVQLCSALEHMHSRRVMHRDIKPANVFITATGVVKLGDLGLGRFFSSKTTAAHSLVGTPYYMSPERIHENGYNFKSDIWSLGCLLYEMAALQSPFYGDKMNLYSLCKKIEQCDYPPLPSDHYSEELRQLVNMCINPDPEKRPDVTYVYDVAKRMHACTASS
In short: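 GST-tagged full-length human NEK7 (Sf9-expressed) with 1 mg/mL casein in HEPES pH 7.5/MgCl2 buffer, 1% DMSO; compounds 10 μM–0.5 nM preincubated 20 min at RT. Reaction started with [^33P]-ATP, 2 h at RT, P81 filter radioactivity read; IC50 from % activity remaining versus vehicle.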

Q: Which IC50 (IL-1β release) does the source give for `CN1CCN(Cc2ccc(NC(=O)Nc3ccc(-c4cn(C5CC5)c5ncnc(N)c45)c4ccncc34)cc2C(F)(F)F)CC1` [Example I-9, 1-(5-(4-amino-7-cyclopropyl-7H-pyrrolo[2,3-d]pyrimidin-5-yl)isoquinolin-8-yl)-3-(4-((4-methylpiperazin-1-yl)-methyl)-3-(trifluoromethyl)-phenyl)urea] here?
A: < 100 nM

Q: What about the IC50 [1] of the same compound?
A: < 200 nM

Q: `Nc1ncnc2c1c(-c1ccc(NC(=O)Nc3cc(C4(C(F)(F)F)CC4)on3)c3ncccc13)cn2C1CC1` [Example I-4, 1-(5-(4-amino-7-cyclopropyl-7H-pyrrolo[2,3-d]pyrimidin-5-yl)quinolin-8-yl)-3-(5-(1-(trifluoromethyl)cyclopropyl)-isoxazol-3-yl)urea] was tested. Which IC50 (IL-1β release) did it give?
A: > 1000 nM

Q: And the IC50 [1]?
A: > 2000 nM

Q: With `CC(C)(C)c1cc(NC(=O)Nc2ccc(-c3cn(C4CC4)c4ncnc(N)c34)c3nonc23)on1` [Example I-74, 1-(7-(4-amino-7-cyclopropyl-7H-pyrrolo[2,3-d]pyrimidin-5-yl)benzo[c][1,2,5]oxadiazol-4-yl)-3-(3-(tert-butyl)isoxazol-5-yl)urea] as the compound, how does the IC50 (IL-1β release) read?
A: < 100 nM

Q: And the IC50 [1]?
A: < 200 nM

Q: Which results are given for `CN1CCN(Cc2ccc(NC(=O)Nc3ncc(-c4cn(C5CC5)c5ncnc(N)c45)n4ccnc34)cc2C(F)(F)F)CC1` [Example I-51, 1-(5-(4-amino-7-cyclopropyl-7H-pyrrolo[2,3-d]pyrimidin-5-yl)imidazo[1,2-a]pyrazin-8-yl)-3-(4-((4-methylpiperazin-1-yl)methyl)-3-(trifluorometh-yl)phenyl)urea]?
A: IC50 (IL-1β release): > 1000 nM; IC50 [1]: > 2000 nM

Q: `CC(C)(C)c1cc(NC(=O)Nc2ccc(-c3cn(C4CC4)c4ncnc(N)c34)c3ccoc23)n(-c2ccccc2)n1` [Example I-62, 1-(4-(4-amino-7-cyclopropyl-7H-pyrrolo[2,3-d]pyrimidin-5-yl)benzofuran-7-yl)-3-(3-(tert-butyl)-1-phenyl-1H-pyrazol-5-yl)urea] was tested. Which IC50 (IL-1β release) did it give?
A: < 100 nM

Q: And the IC50 [1]?
A: 500 to 2000 nM

Q: `Nc1ncnc2c1c(-c1ccc(NC(=O)Nc3cc(C4(C(F)(F)F)CC4)on3)c3nonc13)cn2C1CC1` [Example I-77, 1-(7-(4-amino-7-cyclopropyl-7H-pyrrolo[2,3-d]pyrimidin-5-yl)benzo[c][1,2,5]oxadiazol-4-yl)-3-(5-(1-(trifluoromethyl)-cyclopropyl)isoxazol-3-yl)urea] was tested. Which IC50 (IL-1β release) did it give?
A: < 100 nM

Q: And the IC50 [1]?
A: < 200 nM

Q: What does the source list for `Nc1ncnc2c1c(-c1ccc(NC(=O)Nc3cc(C4(C(F)(F)F)CC4)on3)c3c1CCO3)cn2C1CC1` [Example I-52, 1-(4-(4-amino-7-cyclopropyl-7H-pyrrolo[2,3-d]pyrimidin-5-yl)-2,3-dihydrobenzofuran-7-yl)-3-(5-(1-(trifluorometh-yl)cyclopropyl)isoxazol-3-yl)urea]?
A: IC50 (IL-1β release): 250 to 1000 nM; IC50 [1]: 200 to 500 nM

Q: With `CN1CCN(Cc2ccc(NC(=O)Nc3ccc(-c4cn(C5CC5)c5ncnc(N)c45)c4cnoc34)cc2C(F)(F)F)CC1` [Example I-69, 1-(4-(4-amino-7-cyclopropyl-7H-pyrrolo[2,3-d]pyrimidin-5-yl)benzo[d]isoxazol-7-yl)-3-(4-((4-methylpiperazin-1-yl)methyl)-3-(trifluorometh-yl)phenyl)urea] as the compound, how does the IC50 (IL-1β release) read?
A: > 1000 nM

Q: And the IC50 [1]?
A: < 200 nM

Q: With `Nc1ncnc2c1c(-c1ccc(NC(=O)Nc3cc(C4(C(F)(F)F)CC4)on3)c3occc13)cn2C1CC1` [Example I-65, 1-(4-(4-amino-7-cyclopropyl-7H-pyrrolo[2,3-d]pyrimidin-5-yl)benzofuran-7-yl)-3-(5-(1-(trifluoromethyl)cyclopropyl)-isoxazol-3-yl)urea] as the compound, how does the IC50 (IL-1β release) read?
A: > 1000 nM

Q: And the IC50 [1]?
A: 500 to 2000 nM

Q: How did the IC50 (IL-1β release) turn out when `CC(C)(C)c1cc(NC(=O)Nc2ccc(-c3cn(C4CC4)c4ncnc(N)c34)c3ccoc23)on1` [Example I-63, 1-(4-(4-amino-7-cyclopropyl-7H-pyrrolo[2,3-d]pyrimidin-5-yl)benzofuran-7-yl)-3-(3-(tert-butyl)isoxazol-5-yl)urea] was run?
A: 250 to 1000 nM

Q: And the IC50 [1]?
A: 500 to 2000 nM

Q: How did the IC50 (IL-1β release) turn out when `CC(C)(C)c1cc(NC(=O)Nc2ccc(-c3cn(C4CC4)c4ncnc(N)c34)n3ccnc23)on1` [Example I-17, 1-(5-(4-amino-7-cyclopropyl-7H-pyrrolo[2,3-d]pyrimidin-5-yl)imidazo[1,2-a]pyridin-8-yl)-3-(3-(tert-butyl)isoxazol-5-yl)urea] was run?
A: < 100 nM

Q: And the IC50 [1]?
A: < 200 nM

Q: How did the IC50 (IL-1β release) turn out when `CC(C)(C)c1cc(NC(=O)Nc2ccc(-c3cn(C4CC4)c4ncnc(N)c34)n3ccnc23)n(-c2ccccc2)n1` [Example I-11, 1-(5-(4-amino-7-cyclopropyl-7H-pyrrolo[2,3-d]pyrimidin-5-yl)imidazo[1,2-a]pyridin-8-yl)-3-(3-(tert-butyl)-1-phenyl-1H-pyrazol-5-yl)urea] was run?
A: < 100 nM

Q: What about the IC50 [1] of the same compound?
A: < 200 nM

Q: `CN1CCN(Cc2ccc(NC(=O)Nc3ccc(-c4cn(C5CC5)c5ncnc(N)c45)n4cc(C(F)(F)F)nc34)cc2C(F)(F)F)CC1` [Example I-47, 1-(5-(4-amino-7-cyclopropyl-7H-pyrrolo[2,3-d]pyrimidin-5-yl)-2-(trifluoromethyl)-imidazo[1,2-a]pyridin-8-yl)-3-(4-((4-methylpiperazin-1-yl)-methyl)-3-(trifluoromethyl)-phenyl)urea] was tested. Which IC50 (IL-1β release) did it give?
A: < 100 nM

Q: And the IC50 [1]?
A: > 2000 nM
